Test results reported in ChEMBL document CHEMBL4251604, “Design, synthesis and biological evaluation of 1, 4-dihydro indeno[1,2-c] pyrazole linked oxindole analogues as potential anticancer agents targeting tubulin and inducing p53 dependent apoptosis” (Eur J Med Chem, 2018).
The source made the active and inactive calls. No cut-off for these calls is given here.

Experiments:
HeLa [1] = experiment: Antiproliferative activity against human HeLa cells after 24 hrs by SRB assay; type: functional, cell-based
A549 = experiment: Antiproliferative activity against human A549 cells after 24 hrs by SRB assay; type: functional, cell-based; conditions: A549, 24 h
MDA-MB-231 = experiment: Antiproliferative activity against human MDA-MB-231 cells after 24 hrs by SRB assay; type: functional, cell-based; conditions: MDA-MB-231, 24 h
HEK293 = experiment: Antiproliferative activity against HEK293 cells after 24 hrs by SRB assay; type: cell-based; conditions: Homo sapiens, HEK293, 24 h
HeLa [2] = experiment: Cell cycle arrest in human HeLa cells assessed as accumulation of cells at G2/M phase at 5 uM after 24 hrs by propidium iodide staining-based flow cytometric analysis (reference value: 16.4%); type: functional
HeLa [3] = experiment: Inhibition of microtubules in human HeLa cells assessed as induction of disorganized spindle fibers formation at 5 uM after 24 hrs by DAPI staining-based confocal microscopic analysis; type: cell-based
Tubulin (Homo sapiens) = Tubulin (Homo sapiens) (UniProt P68371+Q9H4B7+P0DPH7+P68366+Q13509+Q71U36+P04350+Q3ZCM7+P07437+P68363+Q9BQE3+Q6PEY2+Q13885+Q9BVA1+Q9BUF5); experiment: Inhibition of tubulin polymerization in human HeLa cells assessed as reduction in polymerized tubulin expression at 5 uM affter 24 hrs by Western blot analysis; type: cell-based
HeLa [4] = experiment: Induction of apoptosis in human HeLa cells assessed as increase in caspase-3 activation at 5 uM after 24 hrs by fluorescence assay; type: functional, cell-based
HeLa [5] = experiment: Inhibition of microtubules in human HeLa cells assessed as induction of cell cycle arrest in metaphase at 5 uM after 24 hrs by DAPI staining-based confocal microscopic analysis
HeLa [6] = experiment: Inhibition of microtubules in human HeLa cells assessed as increase in cyclin B1 protein level at 5 uM affter 24 hrs by Western blot analysis; type: cell-based
HeLa [7] = experiment: Inhibition of microtubules in human HeLa cells assessed as increase in CDK1 protein level at 5 uM affter 24 hrs by Western blot analysis; type: cell-based
HeLa [8] = experiment: Induction of apoptosis in human HeLa cells assessed as increase in p53 expression at 5 uM after 24 hrs by Western blot analysis; type: functional, cell-based
HeLa [9] = experiment: Induction of apoptosis in human HeLa cells assessed as increase in p21 expression at 5 uM after 24 hrs by Western blot analysis; type: functional, cell-based
HeLa [10] = experiment: Induction of apoptosis in human HeLa cells assessed as increase in Bax expression at 5 uM after 24 hrs by Western blot analysis; type: functional, cell-based
HeLa [11] = experiment: Induction of apoptosis in human HeLa cells assessed as increase in p53 expression at 5 uM after 24 hrs by DAPI staining-based immunocytochemistry; type: functional, cell-based
HeLa [12] = experiment: Induction of apoptosis in human HeLa cells assessed as increase in Bax expression at 5 uM after 24 hrs by DAPI staining-based immunocytochemistry; type: functional, cell-based

Structure (SMILES)	IC50 (HeLa [1])	IC50 (A549)	IC50 (MDA-MB-231)	IC50 (HEK293)	further results
COc1ccc2c(c1)-c1n[nH]c(/C=C3\C(=O)Nc4cc(Br)ccc43)c1C2	25.4 µM	26.1 µM	23.4 µM	28.6 µM	
O=C1Nc2ccc(Cl)cc2/C1=C/c1[nH]nc2c1Cc1ccccc1-2	15.2 µM	20.5 µM	16.8 µM	24.3 µM	
COc1cc2c(cc1OC)-c1n[nH]c(/C=C3\C(=O)Nc4ccccc43)c1C2	2.16 µM	2.92 µM	3.45 µM	4.36 µM	Activity (HeLa [2]): 23.6%; inhibition (HeLa [3]): Active; inhibition (Tubulin (Homo sapiens)): Active; Activity (HeLa [4]): Active; inhibition (HeLa [5]): Active; inhibition (HeLa [6]): Active; inhibition (HeLa [7]): Active
COc1ccc2c(c1)-c1n[nH]c(/C=C3\C(=O)Nc4cc(Cl)ccc43)c1C2	17 µM	20.9 µM	19 µM	21.9 µM	
COc1ccc2c(c1)-c1n[nH]c(/C=C3\C(=O)Nc4ccccc43)c1C2	16 µM	20.6 µM	19.3 µM	22.5 µM	
COc1ccc2c(c1)-c1n[nH]c(/C=C3\C(=O)Nc4ccc(Br)cc43)c1C2	30.9 µM	29.8 µM	34.1 µM	35.8 µM	
COc1ccc2c(c1)/C(=C/c1[nH]nc3c1Cc1ccccc1-3)C(=O)N2	30.1 µM	29.6 µM	26.7 µM	33.9 µM	
COc1ccc2c(c1)/C(=C/c1[nH]nc3c1Cc1cc(OC)c(OC)cc1-3)C(=O)N2	2.58 µM	3.43 µM	4.14 µM	5.1 µM	Activity (HeLa [2]): 31.3%; inhibition (HeLa [3]): Active; inhibition (Tubulin (Homo sapiens)): Active; inhibition (HeLa [5]): Active; inhibition (HeLa [6]): Active; inhibition (HeLa [7]): Active
COc1cc2c(cc1OC)-c1n[nH]c(/C=C3\C(=O)Nc4ccc(Br)cc43)c1C2	11.5 µM	17.1 µM	18.7 µM	19.6 µM	
O=C1Nc2cc(Br)ccc2/C1=C/c1[nH]nc2c1Cc1ccccc1-2	30.7 µM	35.6 µM	29.7 µM	34.2 µM	
COc1ccc2c(c1)-c1n[nH]c(/C=C3\C(=O)Nc4ccc([N+](=O)[O-])cc43)c1C2	22.1 µM	26 µM	29.2 µM	30.8 µM	
O=C1Nc2cc(Cl)ccc2/C1=C/c1[nH]nc2c1Cc1ccccc1-2	14.6 µM	20.5 µM	24.3 µM	19.4 µM	
COc1cc2c(cc1OC)-c1n[nH]c(/C=C3\C(=O)Nc4cc(Cl)ccc43)c1C2	1.33 µM	2.44 µM	2.08 µM	2.97 µM	Activity (HeLa [2]): 30.3%; inhibition (HeLa [3]): Active; inhibition (Tubulin (Homo sapiens)): Active; Activity (HeLa [8]): Active; Activity (HeLa [9]): Active; Activity (HeLa [10]): Active; Activity (HeLa [11]): Active; Activity (HeLa [12]): Active; Activity (HeLa [4]): Active; inhibition (HeLa [5]): Active; inhibition (HeLa [6]): Active; inhibition (HeLa [7]): Active
O=C1Nc2ccc(Br)cc2/C1=C/c1[nH]nc2c1Cc1ccccc1-2	16.9 µM	21.1 µM	20.3 µM	22.5 µM	
COc1cc2c(cc1OC)-c1n[nH]c(/C=C3\C(=O)Nc4cc(Br)ccc43)c1C2	20.5 µM	22.5 µM	20.4 µM	24.6 µM	
COc1ccc(/C=C\c2cc(OC)c(OC)c(OC)c2)cc1O [COMBRETASTATIN A4]	1.43 µM	1.15 µM	0.92 µM	1.73 µM	Activity (HeLa [2]): 55.8%; inhibition (HeLa [3]): Active; inhibition (HeLa [5]): Active
COc1ccc2c(c1)-c1n[nH]c(/C=C3\C(=O)Nc4ccc(Cl)cc43)c1C2	17.5 µM	17.6 µM	20.8 µM	27.4 µM	
COc1cc2c(cc1OC)-c1n[nH]c(/C=C3\C(=O)Nc4cc([N+](=O)[O-])ccc43)c1C2	30.7 µM	34.4 µM	29.9 µM	36.7 µM	
O=C1Nc2ccccc2/C1=C/c1[nH]nc2c1Cc1ccccc1-2	11.7 µM	16.6 µM	19 µM	24.3 µM	
COc1cc2c(cc1OC)-c1n[nH]c(/C=C3\C(=O)Nc4ccc(Cl)cc43)c1C2	8.96 µM	13.5 µM	12.3 µM	9.21 µM	
